Results: patent publication US20100144793A1, “NOVEL COMPOUNDS FOR THE TREATMENT OF DISEASES ASSOCIATED WITH AMYLOID OR AMYLOID-LIKE PROTEINS” (AC IMMUNE SA, priority 2006, published 2010)
Structures can show the parent of a compound that is named as a salt. Where two headings read alike, the source gives them in different places.

Columns and labels:
Type in all cases: biochemical
[1] = biological target: T1, Oregon Green labeled Aβ(1-42) (Homo sapiens, UniProt P05067); experiment: FCS-assay with 5 nM Oregon Green labeled Aβ-peptide (disaggregation of preformed aggregates)
T1 construct: DMSO-stock solutions of Oregon Green labeled Aβ(1-42) 1:1 with deionized water
T1 sequence (P05067 672-713 limits assumed): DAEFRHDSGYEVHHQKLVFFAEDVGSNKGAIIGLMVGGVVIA
Experimental: In order to analyse the disaggregating properties of the compounds, preformed aggregates were used, which were induced straight before the FCS-measurement by diluting low concentrated (500 nM) DMSO-stock solutions of Oregon Green labeled Aβ(1-42) 1:1 with deionized water. The final concentration of Oregon Green labeled Aβ-peptide was 5 nM in 1×PBS and 3% DMSO.
To improve the reproducibility of the measurements of the concentration dependencies all samples were prepared fourfold.

preformed Aβ1-42 fibers = biological target: T2, preformed Aβ1-42 fibers (Homo sapiens, UniProt P05067); experiment: Thioflavin T spectrofluorescence assay: disaggregation of preformed Aβ1-42 fibers; conditions: Table 5; 330 μM small molecule, 10:1 molar ratio to pre-aggregated Aβ1-42, additional 24 h at 37° C.; mean ± SD of two independent experiments
T2 construct: Aβ1-42 lyophilized powder (Bachem) was reconstituted in hexafluoroisopropanol (HFIP) to 1 mM; purchased Bachem
T2 sequence (P05067 672-713 limits assumed): as above
Experimental: (§1) The objective of this example was to evaluate the capacity of the compounds of the invention to inhibit the aggregation of (Aβ)1-42 peptide and to disaggregate pre-aggregated Aβ1-42 using a thioflavin T spectrofluorescence assay.
(§2) Aβ1-42 lyophilized powder (Bachem) was reconstituted in hexafluoroisopropanol (HFIP) to 1 mM. The peptide solution was sonicated for 15 min at room temperature, agitated overnight, and aliquots were placed into non-siliconized microcentrifuge tubes. The HFIP was then evaporated under a stream of argon. The resulting peptide film was dried under vacuum for 10 min, tightly sealed and stored at −80° C. until used.
This solution was then allowed to aggregate at 37° C. for 24 h after which a small molecule and ThT were added to obtain a final concentration of 330 μM small molecule and 10 μM ThT. […] This solution was then incubated for additional 24 h at 37° C. The spectrofluorescence was then measured and % disaggregation calculated. Disaggregation is expressed as mean % disaggregation±1 standard deviation (SD) according to the same equation as for the inhibition of aggregation.

Aβ1-42 = biological target: T3, Aβ1-42 (Homo sapiens, UniProt P05067); experiment: Thioflavin T spectrofluorescence assay: inhibition of Aβ1-42 aggregation; conditions: 24 h
T3 construct: Aβ1-42 lyophilized powder (Bachem) was reconstituted in hexafluoroisopropanol (HFIP) to 1 mM; purchased Bachem
T3 sequence (P05067 672-713 limits assumed): as above
Experimental: as §1, §2
Aβ1-42 peptide film was dissolved in DMSO to reach 400 μM. Assay solution in PBS was prepared in non-siliconized incubation tubes to reach the following concentrations: 330 μM small molecule, 33 μM Aβ1-42, 10 μM thioflavin T (ThT), and 12.8% DMSO. Therefore, the final molar ratio of small molecule to Aβ1-42 was 10:1. A positive control without a small molecule was prepared to measure maximum RFU. A negative control without Aβ1-42 was prepared for each small molecule. 3-aminopyrazole trimer (Trimer) was tested in all assays to ascertain reproducibility between independent experiments. The solutions were then incubated for 24 h at 37° C., and the spectrofluorescence (relative fluorescence units; RFU) read in six replicates in black 384-well assay plates (Perkin-Elmer) on a Perkin-Elmer FluoroCount spectrofluorometer. Inhibition of aggregation is expressed as mean % inhibition±1 standard deviation (SD) according to the following equation: […]

[2] = read-out: Percentage of the “number of peaks” value compared to the control reaction without added ligand
[3] = read-out: Percentage of the “peaks × height“ value compared to the control reaction without added ligand

Structure (SMILES)	remaining activity at 0.01 µM [1, 2] [%]	remaining activity at 0.1 µM [1, 2] [%]	remaining activity at 0.01 µM [1, 3] [%]	remaining activity at 0.1 µM [1, 3] [%]	% disaggregation (preformed Aβ1-42 fibers) [%]	inhibition at 330 µM (Aβ1-42) [%]	remaining activity at 0.2 µM [1, 2] [%]	remaining activity at 1 µM [1, 2] [%]	remaining activity at 5 µM [1, 2] [%]	remaining activity at 25 µM [1, 2] [%]	remaining activity at 100 µM [1, 2] [%]	remaining activity at 0.2 µM [1, 3] [%]	remaining activity at 1 µM [1, 3] [%]	remaining activity at 5 µM [1, 3] [%]	remaining activity at 25 µM [1, 3] [%]	remaining activity at 100 µM [1, 3] [%]
Cc1ccc(-c2cc(NCCNc3cc(-c4cccs4)[nH]n3)n[nH]2)cc1 [Compound 1ab, N-(5-(Thiophen-2-yl)-1H-pyrazol-3-yl)-N′-(5-p-tolyl-1H-pyrazol-3-yl)ethane-1,2-diamine bishydrochloride]	55.6	54.2	27	51.4	78.0 ± 4.5	85 ± 8.6										
Brc1ccc(-c2cc(NCCNc3cc(-c4ccc(Br)cc4)[nH]n3)n[nH]2)cc1 [Compound 1u, N^1,N^2-bis(5-(4-Bromophenyl)-1H-pyrazol-3-yl)ethane-1,2-diamine bishydrochloride]					78.8 ± 5.1	77.2 ± 1.5	58	60	47.5	45	35	59.2	62.4	48	49.2	27.2
Cc1ccc(-c2cc(NCCNc3cc(-c4ccc(C)cc4)[nH]n3)n[nH]2)cc1 [Compound 1d, N^1,N^2-bis(5-p-Tolyl-1H-pyrazol-3-yl)ethane-1,2-diamine bishydrochloride]					77.1 ± 2.5	88.3 ± 1	72.8					83.1				
Clc1ccc(-c2cc(NCCNc3cc(-c4ccc(Cl)cc4)[nH]n3)n[nH]2)cc1 [Compound 1f, N^1,N^2-bis(5-(4-Chlorophenyl)-1H-pyrazol-3-yl)ethane-1,2-diamine bishydrochloride]					78.4 ± 1.7	86.5 ± 7.4	55.9					101				
